The target in one experiment is T1, BRD4 (BD1) (Homo sapiens, UniProt O60885).
T1 construct: with relatively long constructs also being possible, preferably amino acids 44-168; made in house; host or cells: E. coli
The experiment in a line: Binding assay BRD4/acetylated peptide H4 (TR-FRET protein-protein interaction assay). In a few lines:
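His6-BRD4 BD1 (aa 67-152, E. coli), usually 10 nM, with biotinylated tetra-acetylated H4 peptide in HEPES pH 7.5 buffer; 11 compound concentrations 0.1 nM–20 μM in duplicate, 10 min preincubation, 1 h at 22 °C then ≥3 h at 4 °C. TR-FRET 665/620 ratio; IC50 by 4-parameter fit.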

A further experiment concerns MOLM-13 cells. The experiment in a line: Cell proliferation assay (alamarBlue), MOLM-13. Type of experiment: cell-based. The following applies: Homo sapiens, 96 hours incubation, inhibition of cell proliferation. A digest of the protocol: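 Cells in RPMI1640/10% FCS read by alamarBlue fluorescence (ex 530, em 590 nm) after overnight 37 °C incubation, then treated at 1E-5 to 1E-8 M for 96 h. Pre-treatment values subtracted from endpoint values and compared with buffer-only wells; IC50 is 50% proliferation inhibition.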
A general note: The colour change of resazurin is a common sign of viable cells or microbes.

In a further experiment the test system is MDA-MB-231 cells. Put plainly: Cell proliferation assay (alamarBlue), MDA-MB-231. The class given is cell-based. The following applies: Homo sapiens; inhibition of cell proliferation, MDA-MB-231 (breast carcinoma), 96 hours. As for the experimental part: (§1) In accordance with the invention, the capability of the substances to inhibit cell proliferation was determined Cell viability was determined using the alamarBlue® reagent (Invitrogen) in a Victor X3 Multilabel Reader (Perkin Elmer). The excitation wavelength was 530 nm and the emission wavelenth […].
The MDA-MB-231 cells (DSMZ, ACC 732) were sown at a concentration of 4000 cells/well in 100 μl growth medium (DMEM/Ham's F12 medium, 10% FCS) on 96-well microtitre plates. The Caov-3 cells (ATCC, HTB-75) were sown at a concentration of 2000 cells/well in 100 μl growth medium (MEM Earle's medium, 10% FCS) on 96-well microtitre plates.
(§2) After an overnight incubation at 37° C., the fluorescence values (CI values) were determined. The plates were then treated with various substance dilutions (1E-5 M, 3E-6 M, 1E-6M, 3E-7 M, 1E-7 M, 3E-8 M, 1E-8 M) and incubated at 37° C. for 72 (MV4-11-, LOX-IMVI cells), 96 (MOLM-13-, B16F10-, MDA-MB-431-, Caov-3 cells), 120 (MOLP-8-, KMS-12-PE cells) or 168 (LAPC-4 cells) hours. The fluorescence values (CO values) were then determined. For the data analysis, the CI values were subtracted from the CO values and the results were compared between cells treated with different dilutions of the substance or with buffer solution only. These were used to calculate the IC 50 values (substance concentration required for 50% inhibition of cell proliferation).

The next experiment deals with LAPC-4 cells. Put plainly: Cell proliferation assay (alamarBlue), LAPC-4. Type of experiment: cell-based. The following applies: Homo sapiens, LAPC4; inhibition of cell proliferation, LAPC-4 (prostate cancer), 1 nM methyltrienolone, 168 hours. As for the experimental part:
as §1
The LAPC-4 cells (ATCC, PTA-1441TM) were sown at a concentration of 4000 cells/well in 100 μl growth medium (RPMI1640, 2 mM L-glutamine, 10% cFCS) on 96-well microtitre plates. A day later, the LAPC-4 cells were treated with 1 nM methyltrienolone and various substance dilutions.
as §2

The next experiment concerns MV4-11 cells. The experiment in a line: Cell proliferation assay (alamarBlue), MV4-11. Type of experiment: cell-based. The following applies: Homo sapiens, 72 hours incubation, inhibition of cell proliferation. In a few lines: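 Cells seeded at 5000/well in RPMI1640 + 10% FCS, incubated overnight at 37° C, then treated with compound (1E-5 to 1E-8 M) for 72 h at 37° C. Viability by alamarBlue fluorescence (ex 530/em 590 nm); pre-treatment readings subtracted, IC50 derived versus buffer-treated cells.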

The next experiment relates to LOX-IMVI cells. The experiment in a line: Cell proliferation assay (alamarBlue), LOX-IMVI. The class given is cell-based. The following applies: Homo sapiens, 72 hours incubation, inhibition of cell proliferation. In a few lines:
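Cells seeded at 1000/well in RPMI1640 with 10% FCS, incubated overnight at 37° C, then treated with dilutions from 1E-5 to 1E-8 M for 72 h. Viability read by alamarBlue fluorescence (ex 530/em 590 nm); pre-treatment values subtracted and compared with buffer-only cells to derive IC50.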

In a further experiment the test system is MOLP-8 cells. Put plainly: Cell proliferation assay (alamarBlue), MOLP-8. Type of experiment: cell-based. The following applies: Homo sapiens, 120 hours incubation, inhibition of cell proliferation. A digest of the protocol:
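MOLP-8 cells in RPMI1640 with 20% FCS, 4000 cells/well, treated overnight after seeding with substance at 1E-5 to 1E-8 M for 120 h at 37° C. Viability read by alamarBlue fluorescence (ex 530, em 590); pre-treatment values subtracted, compared with buffer-only cells to derive IC50.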

Another experiment deals with KMS-12-PE cells. The experiment in a line: Cell proliferation assay (alamarBlue), KMS-12-PE. The class given is cell-based. The following applies: Homo sapiens, 120 hours incubation, inhibition of cell proliferation. In a few lines: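 KMS-12-PE myeloma cells in RPMI1640 with 20% FCS were exposed to compound (1E-5 to 1E-8 M) for 120 h at 37° C. AlamarBlue fluorescence (ex 530, em 590 nm) read before and after treatment; the difference versus buffer-treated cells gave IC50.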

The next experiment has as its system Caov-3 cells. Put plainly: Cell proliferation assay (alamarBlue), Caov-3. Type of experiment: cell-based. The following applies: Homo sapiens; inhibition of cell proliferation, Caov-3 (ovarian carcinoma), 96 hours. A digest of the protocol:
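Caov-3 (MEM Earle's, 10% FCS, 2000 cells/well) and MDA-MB-231 (DMEM/Ham's F12, 10% FCS, 4000 cells/well) were treated after overnight attachment with 1E-5 to 1E-8 M compound. Caov-3 exposure was 96 h. alamarBlue fluorescence (ex 530, em 590 nm) was read after background subtraction of day-0 values, and IC50 calculated versus buffer-treated cells.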

A further experiment deals with B16F10 cells. The experiment in a line: Cell proliferation assay (alamarBlue), B16F10. The class given is cell-based. The following applies: Mus musculus, B16-F10, 96 hours incubation, inhibition of cell proliferation. As for the experimental part:
as §1
The B16F10 cells (ATCC, CRL-6475) were sown at a concentration of 300-500 cells/well in 100 μl growth medium (DMEM with phenol red, 10% FCS) on 96-well microtitre plates.
as §2

Consider `CNC(=O)N1N=C(c2ccc(Cl)cc2)c2cc(OC(F)(F)F)c(Cl)cc2CC1C` (racemic) [Example 15], for which the values for the IC50 at BRD4 (BD1), in the experiment with MOLM-13 cells and in the experiment on MDA-MB-231 cells were 870 nM, 3450 nM and 6230 nM, respectively.
As for `CNC(=O)N1N=C(c2ccc(Cl)cc2)c2cc(N3CCOCC3)ccc2C[C@@H]1C` [Example 11.1, (4S)-1-(4-Chlorophenyl)-N,4-dimethyl-8-(morpholin-4-yl)-4,5-dihydro-3H-2,3-benzodiazepine-3-carboxamide], the concentration for half-maximal inhibition (IC50) is 80 nM at BRD4 (BD1), 570 nM in the experiment with MOLM-13 cells, 310 nM in the experiment on LAPC-4 cells and 1110 nM with MDA-MB-231 cells.
On to `CNC(=O)N1N=C(c2ccc(Cl)cc2)c2cc(N3CCOCC3)ccc2C[C@H]1C` [Example 11.2, (4R)-1-(4-Chlorophenyl)-N,4-dimethyl-8-(morpholin-4-yl)-4,5-dihydro-3H-2,3-benzodiazepine-3-carboxamide], for which the figures for the half-inhibitory concentration (IC50) on BRD4 (BD1), with MOLM-13 cells and with MDA-MB-231 cells were 2510 nM, 7740 nM and 10000 nM, respectively.
As to `CNC(=O)N1N=C(c2ccc(-n3nc(C)cc3C)cc2)c2cc(OC)ccc2C[C@@H]1C` [Example 16, (4S)-1-[4-(3,5-Dimethyl-1H-pyrazol-1-yl)phenyl]-8-methoxy-N,4-dimethyl-4,5-dihydro-3H-2,3-benzodiazepine-3-carboxamide], the IC50 on BRD4 (BD1) turned out to be 50 nM; in the experiment on MOLM-13 cells it was 220 nM; with MV4-11 cells, 270 nM; in the experiment with LOX-IMVI cells, 640 nM; with MOLP-8 cells it was 290 nM; in the experiment on KMS-12-PE cells it was 250 nM. Further, the IC50 in the experiment on LAPC-4 cells was 110 nM; with MDA-MB-231 cells, 470 nM; in the experiment on Caov-3 cells it was 370 nM.
Take `CNC(=O)N1N=C(c2ccc(-c3cnoc3)cc2)c2cc(OC)ccc2C[C@@H]1C` [Example 18, (4S)-1-[4-(4-Isoxazolyl)phenyl]-8-methoxy-N,4-dimethyl-4,5-dihydro-3H-2,3-benzodiazepine-3-carboxamide]: the IC50 on BRD4 (BD1) was determined as 160 nM; in the experiment with MOLM-13 cells, 250 nM; in the experiment with MV4-11 cells, 300 nM; in the experiment on LOX-IMVI cells, 760 nM; in the experiment on MOLP-8 cells, 340 nM; in the experiment on KMS-12-PE cells, 350 nM. The results for the IC50 with MDA-MB-231 cells and in the experiment on Caov-3 cells were 280 nM and 480 nM, respectively.
`CNC(=O)N1N=C(c2ccc(-c3ccnn3C)cc2)c2cc(OC)ccc2C[C@@H]1C` [Example 19, (4S)-8-methoxy-N,4-dimethyl-1-[4-(1-methyl-1H-pyrazol-5-yl)phenyl]-4,5-dihydro-3H-2,3-benzodiazepine-3-carboxamide]: the IC50 amounted to 40 nM at BRD4 (BD1); 170 nM in the experiment on MOLM-13 cells; 270 nM with MV4-11 cells; 650 nM with LOX-IMVI cells; 270 nM in the experiment on MOLP-8 cells; 270 nM with KMS-12-PE cells. The concentration for half-maximal inhibition (IC50) in the experiment with LAPC-4 cells stood at 110 nM; with Caov-3 cells, 410 nM.
With `CNC(=O)N1N=C(c2ccc(-c3ccn[nH]3)cc2)c2cc(OC)ccc2C[C@@H]1C` [Example 23, (4S)-8-methoxy-N,4-dimethyl-1-[4-(1H-pyrazol-5-yl)phenyl]-4,5-dihydro-3H-2,3-benzodiazepine-3-carboxamide], the IC50 on BRD4 (BD1) stood at 90 nM; in the experiment on MOLM-13 cells, 270 nM; in the experiment on LAPC-4 cells, 190 nM.
The corresponding values for `CNC(=O)N1N=C(c2ccc(-n3nc(COC)cc3C)cc2)c2cc(OC)ccc2C[C@@H]1C` [Example 26, (4S)-8-methoxy-1-{4-[3-(methoxymethyl)-5-methyl-1H-pyrazol-1-yl]phenyl}-N,4-dimethyl-4,5-dihydro-3H-2,3-benzodiazepine-3-carboxamide] are 40 nM, 430 nM and 130 nM.
The corresponding values for `CNC(=O)N1N=C(c2ccc(-n3nc(C)cc3COC)cc2)c2cc(OC)ccc2C[C@@H]1C` [Example 27, (4S)-8-methoxy-1-{4-[5-(methoxymethyl)-3-methyl-1H-pyrazol-1-yl]phenyl}-N,4-dimethyl-4,5-dihydro-3H-2,3-benzodiazepine-3-carboxamide] are 30 nM, 630 nM and 180 nM.
As to `CNC(=O)N1N=C(c2ccc(-n3nc(-c4ccccn4)cc3C3CC3)cc2)c2cc(OC)ccc2C[C@@H]1C` [Example 28, (4S)-1-{4-[5-cyclopropyl-3-(pyridin-2-yl)-1H-pyrazol-1-yl]phenyl}-8-methoxy-N,4-dimethyl-4,5-dihydro-3H-2,3-benzodiazepine-3-carboxamide], the IC50 at BRD4 (BD1) came out at 10 nM; in the experiment with MOLM-13 cells it was 40 nM; in the experiment on MV4-11 cells, 30 nM; with LOX-IMVI cells, 40 nM; in the experiment on MOLP-8 cells, 20 nM; in the experiment with KMS-12-PE cells it was 30 nM. The 50% inhibitory concentration (IC50) in the experiment on LAPC-4 cells was 20 nM; in the experiment with Caov-3 cells, 40 nM.
Turning to `CNC(=O)N1N=C(c2ccc(N3CCN(S(C)(=O)=O)CC3)cc2)c2cc(OC)c(OC)cc2C[C@@H]1C` [Example 135.1, (4S)-7,8-dimethoxy-N,4-dimethyl-1-{4-[4-(methylsulphonyl)piperazin-1-yl]phenyl}-4,5-dihydro-3H-2,3-benzodiazepine-3-carboxamide], the IC50 on BRD4 (BD1) was 40 nM; in the experiment on MOLM-13 cells, 150 nM; with B16F10 cells, 80 nM.
For the molecule `CNC(=O)C1CCN(c2ccc(C3=NN(C(=O)NC)[C@@H](C)Cc4cc(OC)c(OC)cc43)cc2)CC1` [Example 189.1, (4S)-7,8-dimethoxy-N,4-dimethyl-1-{4-[4-(methylcarbamoyl)piperidin-1-yl]phenyl}-4,5-dihydro-3H-2,3-benzodiazepine-3-carboxamide], the IC50 turned out to be 40 nM at BRD4 (BD1), 210 nM in the experiment on MOLM-13 cells, 100 nM with B16F10 cells and 80 nM with MOLP-8 cells.
Consider `CNC(=O)N1N=C(c2ccc(N3CCN(C)CC3)cc2)c2cc(OC(F)(F)F)ccc2C[C@@H]1C` [Example 250.2, (4S)-N,4-dimethyl-1-[4-(4-methyl-1-piperazinyl)phenyl]-8-(trifluoromethoxy)-4,5-dihydro-3H-2,3-benzodiazepine-3-carboxamide], for which the IC50 was found to be 20 nM at BRD4 (BD1), 50 nM in the experiment with MOLM-13 cells and 40 nM in the experiment on B16F10 cells.

As usually defined, the IC50 is the point on the concentration scale where inhibition reaches its midpoint. Lower therefore signals inhibition by little substance.

The values above are taken from patent US9890147B2 (BAYER PHARMA AKTIENGESELLSCHAFT, priority 2012, dated 2018).
